Results as given in patent US20090011937A1, “Use of Fungicides for Increasing the Quality and Optionally the Quantity of Oil-Plant Products” (priority 2006, published 2009).

Assays:
Type in all cases: in vivo
[1] = test system: Oilseed rape cv. "Trabant"; test: Phosphorus content of oil, oilseed rape treated with metconazole or metconazole in combination with boscalid, pressing at high pressure (DIN EN 14107); details: oil of rapeseed cv. Trabant, Bothkamp 2005/2006; metconazole 60 g/ha autumn and spring, boscalid 250 g/ha at anthesis; pressed under high pressure; untreated 5.0
Description: Oilseed rape cv. “Trabant” was grown under the usual conditions in 2005/2006 in Germany at the Bothkamp site. In autumn 2005 (growth stage BBCH 16-18) and in spring 2006 (BBCH 31-51), some of the oilseed rape plants were treated by spraying with metconazole (employed in the form of the commercially available product Caramba®; application rate: in each case 60 g active ingredient per ha). Some other oilseed rape plants were furthermore additionally treated during anthesis (BBCH 65) by spraying with boscalid (employed in the form of the commercially available product Cantus®; application rate: 250 g active substance per ha). For comparison reasons, some of the rapeseed plants remained untreated. The plants were harvested in summer 2006 (growth stage BBCH 92). The rapeseed was pressed with a press from Ökotec under high pressure (nozzle 6, 70 rpm, temperature at the pressing head >70° C.), and the phosphorus content of the resulting oil was determined in accordance with DIN EN 14107.

Oilseed rape [2] = test: Phosphorus content of oil, oilseed rape treated with metconazole, pressing with normal pressure (DIN EN 14107); details: oil of rapeseed, Germany 2004/2005; spray autumn and spring, in each case 60 g active ingredient per ha; pressed under normal pressure; untreated 1.9
Description: (§1) Oilseed rape was grown in 2004/2005 in Germany under the usual conditions. In autumn 2004 (growth stage BBCH 14-16) and in spring 2005 (growth stage BBCH 31-51), some of the oilseed rape was treated by spraying with metconazole (employed in the form of the commercially available product Caramba®; application rate: in each case 60 g active ingredient per ha). For comparison purposes, the remainder of the oilseed rape remained untreated. The plants were harvested in summer 2005 (growth stage BBCH 92). The rapeseed was pressed with a press from Ökotec under normal pressure (nozzle 8, 40 rpm, temperature at the pressing head 60° C.), and the phosphorus content and the alkaline-earth metal content (Ca, Mg) of the resulting oil were determined in accordance with DIN EN 14107 and DIN EN 14538, respectively.

[3] = test system: Oilseed rape cv. "Trabant"; test: Alkaline-earth metal content of oil, oilseed rape treated with metconazole, pressing with normal pressure and high pressure (DIN EN 14538)
Description: Oilseed rape cv. “Trabant” was grown under the usual conditions in 2005/2006 in Germany at the Bothkamp site. In autumn 2005 (growth stage BBCH 16-18) and in spring 2006 (BBCH 31-51), some of the oilseed rape plants were treated by spraying with metconazole (employed in the form of the commercially available product Caramba®; application rate: in each case 60 g active ingredient per ha). For comparison reasons, the remainder of the rapeseed plants remained untreated. The plants were harvested in summer 2006 (growth stage BBCH 92). The rapeseed was pressed with a press from Ökotec and the alkaline-earth metal content (Ca, Mg) of the resulting oil was determined as specified in DIN EN 14538. Here, part of the rapeseed was pressed under normal pressure (nozzle 8, 40 rpm, temperature at the pressing head 60° C.) and another portion under high pressure (nozzle 6, 70 rpm, temperature at the pressing head >70° C.).

Oilseed rape [4] = test: Alkaline-earth metal content (Ca, Mg) of oil, oilseed rape treated with metconazole, pressing with normal pressure (DIN EN 14538); details: oil of rapeseed, Germany 2004/2005; spray autumn and spring, in each case 60 g active ingredient per ha; pressed under normal pressure; untreated 5.7
Description: as §1

[5] = test system: Oilseed rape cv. "Lioness"; test: Sulfur content of oil from treated oilseed rape (EN ISO 20884); details: oil of rapeseed cv. Lioness, Britain 2005/2006; spray during anthesis; normal pressure; untreated 4
Description: Oilseed rape cv. “Lioness” was grown in 2005/2006 in Britain under the normal conditions. During anthesis (growth stage BBCH 61-65), the rapeseed plants were treated by spraying either with boscalid (employed in the form of the commercially available product Cantus®; application rate: 250 g active substance per ha), with boscalid in combination with dimoxystrobin (employed in the form of the commercially available product Pictor®; application rate: in each case 100 g active substance per ha), with prothioconazole (employed in the form of the commercially available product Proline®; application rate: 175 g active substance per ha) or with azoxystrobin (employed in the form of the commercially available product Amistar®; application rate: 200 g active substance per ha). For comparison reasons, some of the rapeseed plants remained untreated. The plants were harvested in summer 2006 (BBCH 92). The rapeseed was pressed with a press from Ökotec under normal pressure (nozzle 8, 40 rpm, temperature at the pressing head 60° C.), and the sulfur content of the oil obtained was determined as specified in EN ISO 20884.

[6] = test system: Oilseed rape cv. "Lioness"; test: Overall contamination of oil from treated oilseed rape (DIN EN 12662); details: oil of rapeseed cv. Lioness, Britain 2005/2006; spray during anthesis (BBCH 61-65); normal pressure; untreated 33
Description: Oilseed rape cv. “Lioness” was grown in 2005/2006 in Britain under the normal conditions. During anthesis (growth stage BBCH 61-65), the rapeseed plants were treated by spraying either with boscalid (employed in the form of the commercially available product Cantus®; application rate: 250 g active substance per ha), with boscalid in combination with dimoxystrobin (employed in the form of the commercially available product Pictor®; application rate: in each case 100 g active substance per ha), with prothioconazole (employed in the form of the commercially available product Proline®; application rate: 175 g active substance per ha) or with azoxystrobin (employed in the form of the commercially available product Amistar®; application rate: 200 g active substance per ha). For comparison reasons, some of the rapeseed plants remained untreated. The plants were harvested in summer 2006 (BBCH 92). The rapeseed was pressed with a press from Ökotec under normal pressure (nozzle 8, 40 rpm, temperature at the pressing head 60° C.), and the overall contamination of the oil obtained was determined as specified in DIN EN 12662.

[7] = test system: Oilseed rape cv. "Lioness"; test: Acid content of oil, oilseed rape treated with boscalid or boscalid in combination with dimoxystrobin (DIN EN 14104); details: oil of rapeseed cv. Lioness, Britain 2005/2006; spray during anthesis; normal pressure; untreated 0.41
Description: Oilseed rape cv. “Lioness” was grown in 2005/2006 in Britain under the normal conditions. During anthesis (growth stage BBCH 61-65), the rapeseed plants were treated by spraying either with boscalid (employed in the form of the commercially available product Cantus®; application rate: 250 g active substance per ha) or with boscalid in combination with dimoxystrobin (employed in the form of the commercially available product Pictor®; application rate: in each case 100 g active substance per ha). For comparison reasons, some of the rapeseed plants remained untreated. The plants were harvested in summer 2006 (BBCH 92). The rapeseed was pressed with a press from Ökotec under normal pressure (nozzle 8, 40 rpm, temperature at the pressing head 60° C.), and the acid content of the oil obtained was determined as specified in DIN EN 14104.

[8] = test system: Oilseed rape cv. "Talent"; test: Iodine number of oil, oilseed rape treated with boscalid (EN 14111); details: oil of rapeseed cv. Talent, Tachenhausen 2005/2006; boscalid 250 g/ha during anthesis; normal pressure; untreated 108
Description: Oilseed rape cv. “Talent” was grown in 2005/2006 under the usual conditions at the Tachenhausen site in Germany. During anthesis (growth stage BBCH 61-65), the oilseed rape plants were treated by spraying with boscalid (employed in the form of the commercially available product Cantus®; application rate: 250 g active substance per ha). For comparison reasons, some of the oilseed rape plants remained untreated. The plants were harvested in summer 2006 (BBCH 92). The rapeseed was pressed with a press from Ökotec under normal pressure (nozzle 8, 40 rpm, temperature at the pressing head 60° C.), and the iodine number of the oil obtained was determined as specified in EN 14111.

[9] = test system: Oilseed rape cv. "Talent"; test: Resistance to oxidation of oil, oilseed rape treated with boscalid or boscalid in combination with dimoxystrobin (DIN EN 14112); details: oil of rapeseed cv. Talent, Tachenhausen 2005/2006; spray during anthesis; normal pressure; untreated 9.5
Description: Oilseed rape cv. “Talent” was grown in 2005/2006 under the usual conditions at the Tachenhausen site in Germany. During anthesis (growth stage BBCH 61-65), the oilseed rape plants were treated by spraying either with boscalid (employed in the form of the commercially available product Cantus®; application rate: 250 g active substance per ha) or with boscalid in combination with dimoxystrobin (employed in the form of the commercially available product Pictor®; application rate: in each case 100 g active ingredient per ha). For comparison reasons, some of the oilseed rape plants remained untreated. The plants were harvested in summer 2006 (BBCH 92). The rapeseed was pressed with a press from Ökotec under normal pressure (nozzle 8, 40 rpm, temperature at the pressing head 60° C.), and the resistance to oxidation of the oil obtained was determined as specified in DIN EN 14112.

CC1(C)CCC(Cc2ccc(Cl)cc2)C1(O)Cn1cncn1 (stereo not drawn) [2 × metconazole, metconazole]
Phosphorus content [1]: 4.0 mg/kg | Phosphorus content (Oilseed rape [2]): <1 mg/kg | Brittleness of the seed coat ([3]; inferred from the more pronounced reduction of alkaline-earth metal content in high-pressure oil versus normal-pressure oil): appears to reduce the brittleness of the seed coat | Alkaline-earth metal content (Ca + Mg) - high pressure ([3]; oil of rapeseed cv. Trabant, Bothkamp 2005/2006, metconazole 60 g/ha autumn and spring, high pressure (nozzle 6, 70 rpm, >70° C.), untreated 9): 5 mg/kg | Alkaline-earth metal content (Ca + Mg) - normal pressure ([3]; oil of rapeseed cv. Trabant, Bothkamp 2005/2006, metconazole 60 g/ha autumn and spring, normal pressure (nozzle 8, 40 rpm, 60° C.), untreated 6): 4 mg/kg | Alkaline-earth metal content (Ca + Mg) (Oilseed rape [4]): 3.9 mg/kg

CO/C=C(/C(=O)OC)c1ccccc1Oc1cc(Oc2ccccc2C#N)ncn1 [Azoxystrobin, azoxystrobin]
Sulfur content [5]: 2 mg/kg | Overall contamination [6]: 24 mg/kg

O=C(Nc1ccccc1-c1ccc(Cl)cc1)c1cccnc1Cl [Boscalid, boscalid]
Sulfur content [5]: 2 mg/kg | Acid number [7]: 0.32 mg KOH/g | Iodine number [8]: 105 g iodine per 100 g | Resistance to oxidation at 110° C. [9]: 9.7 h | Overall contamination [6]: 20 mg/kg

OC(Cc1ccccc1Cl)(Cn1nc[nH]c1=S)C1(Cl)CC1 (stereo not drawn) [Prothioconazole, prothioconazole]
Sulfur content [5]: 2 mg/kg | Overall contamination [6]: 22 mg/kg
